Results from US11866394B2, “Prodrugs of hydroxamate-based GCPII inhibitors” (The Johns Hopkins University, priority 2016, dated 2024).

Columns and labels:
[1] = Oral plasma pharmacokinetic studies in mice; format: in vivo; details: mice (n=3), 10 mg/kg equivalent dose, plasma 30 min post dose
Protocol: All pharmacokinetic studies in mice were conducted according to protocols approved by the Animal Care and Use Committee at Johns Hopkins University (Baltimore, MD). Briefly, male CD 1 mice between 25 g and 30 g were obtained from Harlan Laboratories (Indianapolis, Indiana), and maintained on a 12-hour light-dark cycle with ad libitum access to food and water.
Compound 1 and its prodrugs were administered to male mice as a single (p.o.) dose of 10 mg/kg equivalent. Dosing solutions were prepared on the day of the experiment in 50 mM HEPES buffered saline and pH adjusted to 7.4. The mice were sacrificed by pentobarbital injection at 30 minutes post drug administration, and blood collected via cardiac puncture was placed into iced heparin-coated BD microtainers. Blood samples were spun at 2,000 g for 15 minutes, plasma was removed and stored at −80° C. until LC-MS analysis as previously described. (Novakova, et al., 2016) Briefly, chromatographic analysis was performed using an Accela™ ultra high-performance system consisting of an analytical pump, and an autosampler coupled with TSQ Vantage mass spectrometer (Thermo Fisher Scientific Inc., Waltham, MA). […]
Bioanalysis of parent and intact prodrug in plasma and tissues: Prior to extraction, frozen samples were thawed on ice. […] The residue was reconstituted with 50 μL of 30% acetonitrile and analysed by LC/MS/MS. […]

[2] = In vitro metabolic stability in human plasma; format: in vitro ADME; details: 37° C.
Protocol: (§1) For metabolic stability, plasma (mouse, and human) and liver microsomes (mouse and human) were used. For stability, prodrugs (10 μM) were spiked in each matrix and incubated in an orbital shaker at 37° C. At predetermined times (0, 30 and 60 min), 100 μL aliquots of the mixture in triplicate were removed and the reaction quenched by addition of three times the volume of ice cold acetonitrile spiked with the internal standard (losartan 5 μM). The samples were vortexed for 30 s and centrifuged 12000 g for 10 min. 50 μL supernatant diluted with 50 μL water was transferred to a 250 μL polypropylene vial sealed with a Teflon cap. Prodrug disappearance was monitored over time using a liquid chromatography and tandem mass spectrometry (LC/MS/MS) method as described below.
(§2) For LC/MS/MS, prodrugs were separated with Thermo Scientific Accela UPLC system coupled to Accela open autosampler on an Agilent C18 (100×2.1 mm id) UPLC column. The autosampler was temperature controlled and operating at 10° C. […] The column effluent was monitored using TSQ Vantage triple-quadrupole mass spectrometric detector, equipped with an electrospray probe set in the positive ionization mode. […]
(§3) For quantification of compound remaining, disappearance of prodrugs was measured from ratio of peak areas of analyte to IS. Percentage remaining was calculated in the following manner: […]

[3] = system: rat chronic constriction injury (CCI) model of neuropathic pain; assay: Chronic constrictive injury (CCI) model of neuropathic pain, thermal hyperalgesia; format: in vivo; details: 1 mg/kg subcutaneous dose (dose equivalent of 50)
[4] = In vitro metabolic stability in mouse plasma; format: in vitro ADME; details: 37° C.
Protocol: as §1, §2, §3

[5] = Subcutaneous plasma and sciatic nerve pharmacokinetic studies in mice; format: in vivo; details: 10 mg/kg equivalent s.q., 10-120 min post dose
Protocol: Bioanalysis of parent and intact prodrug in plasma and tissues: Prior to extraction, frozen samples were thawed on ice. For plasma, 50 μL of the sample was transferred into siliconized microcentrifuge tubes. For sciatic nerves, the samples were weighed in a 1.7 mL tubes and homogenized in 5× the volume of methanol. The calibration curves were prepared using naïve plasma and sciatic nerves in a concentration range of 50-10000 pmol/g or pmol/mL. Sample preparation involved a single liquid extraction by addition of 300 μL of methanol with internal standard (losartan 200 nM in methanol), followed by vortexing for 30 s and then centrifugation at 10,000×g for 10 min. Supernatant (about 250 μL) was transferred and evaporated to dryness at 40° C. under a gentle stream of nitrogen. The residue was reconstituted with 50 μL of 30% acetonitrile and analysed by LC/MS/MS.
Chromatographic analysis was performed using an Accela™ ultra high-performance system consisting of an analytical pump, and an autosampler coupled with TSQ Vantage mass spectrometer (Thermo Fisher Scientific Inc., Waltham, MA). […] The mobile phase used was composed of 0.1% formic acid in acetonitrile and 0.1% formic acid in H2O with gradient elution, starting with 10% (organic) linearly increasing to 99% up to 2.5 min, maintaining at 99% (2.5-3.5 min) and reequlibrating to 10% by 4.5 min. The total run time for each analyte was 4.5 min. The mass transitions (M−H)− used for Compound 50 were 280.077>175.168, 203.156; and for losartan were 420.895>127.040, 179.108.

[6] = system: rat chronic constriction injury (CCI) model of neuropathic pain; assay: Chronic constrictive injury (CCI) model of neuropathic pain, thermal hyperalgesia; format: in vivo; details: oral daily, 3 mg/kg dose equivalent of 1 (50), 4.6 mg/kg/day for 12
From the text: All experimental protocols were approved by the Institutional Animal Care and Use Committee at Johns Hopkins University (Baltimore, MD) and adhered to all of the applicable institutional and governmental guidelines for the humane treatment of laboratory animals. Male Sprague-Dawley rats (200-250 g; n=10-15 per group) were subjected to peripheral neuropathy injury by constriction of the sciatic nerve performed according to methods described previously. (Novakova, et al., 2016; Bennett, et al., 1988; Attal, et al., 1990) In brief, the common sciatic nerve was exposed and 4 ligatures (4.0 chromic gut) tied loosely around it with 1 mm spacing. Wound clips were used to close wounds and animals were returned to home cages for recovery. Hyperalgesia testing was initiated 10 days post-surgery. Pain sensitivity was assessed by determining withdrawal latencies in response to a constant thermal stimulus directed to the plantar surface of the hind paw using a Basile Plantar apparatus (Ugo Basile, Vaarese, Italy) according to the method described by Hargreaves et al. (Hargreaves, et al., 1988) Apparatus was calibrated so that normal rats respond to the stimulus within 15 sec of application. Withdrawal latency (i.e., the time taken for the rat to withdraw its paw from the heat source) was measured to the nearest 0.1 sec. The “difference in score” was calculated by subtracting the average latency of the paw on the non-ligated versus ligated side. Each animal was tested during two experimental sessions per week, with three days allowed to elapse between test sessions. Test agents, prodrug 12 (3 mg/kg equivalent of 1), or gabapentin (50 mg/kg and 100 mg/kg po) as a positive control were dosed daily throughout the study via oral gavage and one hour before testing on experimental days. Statistical analysis with students t-test was used to determine differences between control and treatment group.

Compound	release / plasma exposure of active compound 50 after oral dosing [1]	metabolic stability in human plasma [2]	reversal of thermal hyperalgesia [3]	metabolic stability in mouse plasma [4]	plasma (systemic) levels of active compound 50 after subcutaneous dosing ([5]; plasma)	sciatic nerve exposure of active compound 50 after subcutaneous dosing ([5]; sciatic nerve)	antinociceptive effect on thermal hyperalgesia, ligated side [6]
CC(=O)ONC(=O)CCC(Cc1cccc(C(=O)O)c1)C(=O)O (stereo not shown) [Compound 34, 3-(5-(Acetoxyamino)-2-carboxy-5-oxopentyl)benzoic acid]	best release						
CC(=O)ONC(=O)CCC(Cc1ccc(C(=O)O)cc1)C(=O)O (stereo not shown) [Compound 7, 4-(5-(Acetoxyamino)-2-carboxy-5-oxopentyl)benzoic acid]		moderately stable	efficacious	moderately stable	high systemic levels	excellent nerve exposure	efficacious
